Patent publication US11091476B2, “Protein kinase inhibitors, preparation method and medical use thereof” (Gan & Lee Pharmaceuticals, priority 2015, dated 2021)

How the values were obtained:
[1] = test system: Human breast cancer cells MDA-MB-231; assay: Inhibition of proliferation of human breast cancer cell MDA-MB-231 (DAPI, In Cell Analyzer); format: cell-based; details: for IC50: Homo sapiens, MDA-MB-231, 72 hours incubation, read-out: IC50, proliferation of human breast cancer cell MDB-MA-231; for Inhibitory activity on proliferation of the MDA-MB-231 cell line, in words: experimental conclusion
Description: 200 μl of medium containing 0.2% DMSO (dimethylsulfoxide) was added into B2 to B10 of a 96-well plate; 300 μl of the above solution was added into B1; and • c. 100 μl of solution was taken from well B1, added into B2, and mixed well; then 100 μl of the resulting solution was taken and added into B3, and dilution was carried out in sequence to B9, so as to obtain standard solutions diluted by 3-fold sequentially. • (2) Preparation of Test Compound Solutions • a. […] 200 μl of medium containing 0.2% DMSO (dimethylsulfoxide) was added into H2 to H10 of the 96-well plate; and 300 μl of the above solution was added into H1; and • c. 100 μl of solution was taken from well H1, added into H2, and mixed well; then 100 μl of the resulting solution was taken and added into H3, and dilution was carried out in sequence to […], so as to obtain test compound solutions diluted by 3-fold sequentially.
2.3 Experimental Process: • 2.3.1: MDA-MB-231 cells were inoculated into a 96-well cell plate with black transparent bottom at 4000 cells/100 μl/well, and cultured overnight at 37° C.; • 2.3.2: The above samples were added at 100 μl/well to a culture plate inoculated with cells, gently patted to mix well, and incubated at 37° C. for 72 hours; • 2.3.3: Fixation: the cell plate was taken out, the medium was removed, and 50 μl of 4% paraformaldehyde was added per well to fix for 10 minutes; • 2.3.4: 50 μl of 0.1M glycine was added to neutralize for 10 minutes; • 2.3.5: 1×PBS (phosphate buffer pH 7.2) was used to wash twice; • 2.3.6: Permeabilization: 50 μl of 0.2% TRITON-X®100 (Triton) was added per well, and permeabilization was carried out at room temperature for 10 minutes; • 2.3.7: 1×PBS (Phosphate buffer pH 7.2) was used to wash twice; • 2.3.8: 5 mg/mL DAPI stock solution was diluted at a ratio of 1:5000 (final concentration of 1 μg/ml), and staining was performed at room temperature for 20 minutes; • 2.3.9: 1×PBS (Phosphate buffer pH 7.2) was used to wash three times; and • 2.3.10: Scanning and analysis were performed by an IN cell analyzer 2200.
(§1) The inhibition rate of each compound at each concentration point was calculated by the formula as follows and curve fitting was performed by GraphPad Prism 5 software to obtain the IC50 value.

CDK4/CyclinE1 = CDK4/CyclinE1 (Homo sapiens, UniProt P11802); details: read-out: CDK4/CyclinE1 IC50
Description: Measurement of CDK kinase inhibitory activity of the compounds of this disclosure.
In vitro inhibitory effect of the compounds of the disclosure on CDK (CDK1, CDK4 and CDK6) kinase activity was tested by the following method.
1.1 Instrument and Kit Information
1.2 Experimental Preparation • 1.2.1 Preparation of Kinase Reaction Buffer I: The 5×Reaction Buffer A (Promega; V307A-C) provided in the kit was mixed and diluted with MILLI-Q® H2O and 0.1 M DTT (dithiothreitol) to give 4× kinase buffer, and then MILLI-Q® H2O was further added to finally formulate the solution into 1× Kinase buffer.
The final concentration was 50 μM. • b. 40 μl of kinase reaction buffer II was added into B2 to B10 of a 96-well plate, and 50 μl of the above solution was added into B1; • c. […]
1.3 Experimental process: • 1.3.1: 2 μl of compound solutions of various concentrations were taken, added to a 384-well plate, and centrifuged 3 minutes; • 1.3.2: 4 μl of kinase solution was added to each well, centrifuged at 5000 rpm and 18° C. for 10 minutes, and shaken on a plate shaker for 10 minutes; • 1.3.3: 4 μl of mixed solution of substrate and ATP was added to each well, centrifuged at 5000 rpm and 18° C. for 10 minutes, and shaken on a plate shaker at 37° C. for 90 minutes; • 1.3.4: The 384-well plate was taken out, and allowed to stand to room temperature; • 1.3.5: 10 μl of ADP-GLO™ reagent was added to each well, centrifuged at 5000 rpm and 18° C. for 18 minutes, and shaken on a plate shaker at 25° C. for 40 minutes, and then the reaction was stopped; • 1.3.6: 20 μl of kinase detection reagent was added to each well, centrifuged at 5000 rpm and 18° C. for 10 minutes, and shaken on a plate shaker at 25° C. for 30 minutes; and • 1.3.7: M1000pro MICROPLATE READER was used to read […] values.
as §1

Chain of CDK4/CyclinE1 (P11802 2-303 limits assumed): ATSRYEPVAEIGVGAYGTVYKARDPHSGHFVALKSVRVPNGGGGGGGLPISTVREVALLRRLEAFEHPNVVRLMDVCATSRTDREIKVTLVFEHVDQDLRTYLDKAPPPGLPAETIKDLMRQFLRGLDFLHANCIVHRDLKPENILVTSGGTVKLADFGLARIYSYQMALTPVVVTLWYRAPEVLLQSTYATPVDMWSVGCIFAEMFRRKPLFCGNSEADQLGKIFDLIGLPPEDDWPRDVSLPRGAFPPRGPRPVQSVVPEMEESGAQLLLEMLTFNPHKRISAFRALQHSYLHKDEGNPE

Row | SMILES | IC50 [1] | IC50 (CDK4/CyclinE1) | Inhibitory activity on proliferation of the MDA-MB-231 cell line, in words [1]
1 | CCN1CCN(Cc2ccc(Nc3ncc(F)c(-c4cc(F)c5nc(C)n(C(C)C)c5c4)n3)nc2)CC1 [LY2835219, reference compound] | 229 nM |  | 
2 | CCN1CCC(c2ccc(Nc3ncc(F)c(-c4cc(F)c5c(c4)C4(CCCC4)C(C)=N5)n3)nc2)CC1 [Example 12, N-(5-(1-ethylpiperidin-4-yl)pyridin-2-yl)-5-fluoro-4-(7′-fluoro-2′-methylspiro [cyclopentane-1,3′-indol]-5′-yl)pyrimidine-2-amino] | 183 nM | 4.46 nM | significant inhibitory activity
3 | CC1=Nc2c(F)cc(-c3nc(Nc4ccc(C5CCN(C)CC5)cn4)ncc3F)cc2C12CCCC2 [Example 17, 5-Fluoro-4-(7′-fluoro-2′-methylspiro[cyclopentane-1,3′-indol]-5′-yl)-N-(5-(1-methylpiperidin-4-yl)pyridin-2-yl)pyrimidine-2-amino] | 110 nM | 2.62 nM | significant inhibitory activity
